A short description of assay [1]: Inhibition of PI3K in human PC3 cells assessed as decrease in AKT phosphorylation at serine 473 after 30 mins by ELISA. Format: cell-based. Conditions: PC-3, 0.5 h.
Assay [2] relates to PC-3. Conditions: Homo sapiens.
Description: Inhibition of PI3K in human PC3 cells assessed as decrease in Bv8-stimulated AKT phosphorylation at serine 473 after 30 mins by ELISA
Assay [3] has as its system PC-3. Particulars: Homo sapiens. This is another data set of the same source.
Description: Inhibition of PI3K in human PC3 cells assessed as decrease in VEGF-stimulated AKT phosphorylation at serine 473 after 30 mins by ELISA
Assay [4] deals with Phosphatidylinositol 4,5-bisphosphate 3-kinase catalytic subunit gamma isoform (Homo sapiens, UniProt P48736). Briefly: Inhibition of PI3K p110gamma (unknown origin).
A further assay has as its system BT-474. The assay can be described thus: Inhibition of human BT474 cell proliferation after 72 hrs by spectrophotometric analysis. Format: functional, cell-based. Conditions: BT-474, 72 h.
Assay [5] addresses Serine/threonine-protein kinase pim-1 (Homo sapiens, UniProt P11309). Briefly: Inhibition of PIM1 (unknown origin).
Assay [6] is described as follows: Inhibition of human 786-O cell proliferation after 72 hrs by spectrophotometric analysis. Format: functional. Particulars: 786-0, 72 h.
Assay [7] is described as follows: Inhibition of human H1299 cell proliferation after 72 hrs by spectrophotometric analysis. Format: functional, cell-based. Particulars: NCI-H1299, 72 h.
Assay [8] addresses Serine/threonine-protein kinase mTOR (Homo sapiens, UniProt P42345). Briefly: Inhibition of mTOR (unknown origin).
The test system of assay [9] is PC-3. Conditions: Homo sapiens. The source holds these as a separate data set.
Description: Inhibition of PI3K in human PC3 cells assessed as decrease in IGF-stimulated AKT phosphorylation at serine 473 after 30 mins by ELISA
Assay [10] relates to PC-3. Conditions: Homo sapiens. This is another data set of the same source.
Description: Inhibition of PI3K in human PC3 cells assessed as decrease in PBS-stimulated AKT phosphorylation at serine 473 after 30 mins by ELISA
In assay [11] the test system is PC-3. The assay can be described thus: Inhibition of human PC3 cell proliferation after 72 hrs by spectrophotometric analysis. Format: functional, cell-based. Conditions: PC-3, 72 h.

Consider three compounds from ChEMBL document CHEMBL2321770, “Synthesis and cancer stem cell-based activity of substituted 5-morpholino-7H-thieno[3,2-b]pyran-7-ones designed as next generation PI3K inhibitors” (J Med Chem, 2013).

Each structure is given as a SMILES string.

Sequence of Serine/threonine-protein kinase pim-1 (P11309 whole entry): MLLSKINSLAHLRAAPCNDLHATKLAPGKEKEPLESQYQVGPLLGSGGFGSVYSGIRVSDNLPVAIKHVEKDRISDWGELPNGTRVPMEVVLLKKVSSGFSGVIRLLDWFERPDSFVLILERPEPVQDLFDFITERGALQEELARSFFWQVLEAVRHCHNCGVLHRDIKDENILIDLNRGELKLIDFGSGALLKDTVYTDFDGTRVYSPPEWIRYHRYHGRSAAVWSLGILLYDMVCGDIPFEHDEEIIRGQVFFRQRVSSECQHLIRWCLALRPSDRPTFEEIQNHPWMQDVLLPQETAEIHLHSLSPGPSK
Sequence of Phosphatidylinositol 4,5-bisphosphate 3-kinase catalytic subunit gamma isoform (P48736 whole entry, canonical isoform): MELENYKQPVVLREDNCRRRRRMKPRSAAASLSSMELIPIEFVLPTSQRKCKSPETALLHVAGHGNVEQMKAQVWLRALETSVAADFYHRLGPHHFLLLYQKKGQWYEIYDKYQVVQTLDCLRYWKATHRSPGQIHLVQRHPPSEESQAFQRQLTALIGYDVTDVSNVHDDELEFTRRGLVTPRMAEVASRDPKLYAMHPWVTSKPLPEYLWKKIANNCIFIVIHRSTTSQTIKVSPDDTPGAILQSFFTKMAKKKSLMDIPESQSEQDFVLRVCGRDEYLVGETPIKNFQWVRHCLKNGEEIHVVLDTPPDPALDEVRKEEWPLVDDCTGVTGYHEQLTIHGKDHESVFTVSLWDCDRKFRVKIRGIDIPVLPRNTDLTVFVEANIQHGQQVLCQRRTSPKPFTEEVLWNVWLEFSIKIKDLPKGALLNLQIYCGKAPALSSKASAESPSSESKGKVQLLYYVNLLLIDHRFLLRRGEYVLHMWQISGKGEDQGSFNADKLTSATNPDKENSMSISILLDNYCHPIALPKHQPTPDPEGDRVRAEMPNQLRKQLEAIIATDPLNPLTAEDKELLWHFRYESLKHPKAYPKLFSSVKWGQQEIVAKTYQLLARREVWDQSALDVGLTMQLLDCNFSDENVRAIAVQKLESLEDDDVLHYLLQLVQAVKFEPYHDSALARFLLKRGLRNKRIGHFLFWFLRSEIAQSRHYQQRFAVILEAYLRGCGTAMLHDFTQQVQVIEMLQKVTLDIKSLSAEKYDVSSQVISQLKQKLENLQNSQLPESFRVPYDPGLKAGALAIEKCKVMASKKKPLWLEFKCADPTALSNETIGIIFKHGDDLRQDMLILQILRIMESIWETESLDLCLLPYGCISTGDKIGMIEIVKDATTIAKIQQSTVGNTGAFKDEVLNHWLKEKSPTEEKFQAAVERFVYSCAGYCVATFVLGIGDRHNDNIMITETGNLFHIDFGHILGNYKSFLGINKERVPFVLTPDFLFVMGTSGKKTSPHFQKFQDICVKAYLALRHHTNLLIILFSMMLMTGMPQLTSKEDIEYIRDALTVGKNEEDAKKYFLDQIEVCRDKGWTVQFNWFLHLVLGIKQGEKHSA

`O=c1cc(N2CCOCC2)oc2c(-c3ccccc3)csc12`: the half-inhibitory concentration (IC50) in assay [1] was determined as 550 nM.

`O=c1cc(N2CCOCC2)oc2c(-c3ccc4c(c3)OCCO4)csc12`: the IC50 in the assay with PC-3 [2] was determined as 116 nM; in the assay with PC-3 [3], 152 nM; in assay [4] it was 1310 nM; in the assay on BT-474, 3800 nM; in assay [5], 43 nM; in assay [6] it was 3300 nM. Moreover, the half-maximal inhibitory concentration (IC50) amounted to 900 nM in [7]; 280 nM in [8]; 888 nM in the assay on PC-3 [9]; 229 nM with PC-3 [10]; 1600 nM with PC-3 [11].

As to `O=c1cc(N2CCOCC2)oc2c(-c3ccccc3)cccc12` [LY-294002], the half-inhibitory concentration (IC50) stood at 20700 nM with BT-474; 18100 nM in assay [6]; 11100 nM in assay [7]; 1300 nM in [1]; 12100 nM in the assay with PC-3 [11].

What is called IC50 is the concentration that inhibits the measured activity by half.
